Results as given in PubChem BioAssay (NCI).
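These data come from cells grown in 96-well plates and exposed to compound for 48 hours at five concentrations. Abbreviation: GI50, concentration required for 50% inhibition of growth. At the TGI there is no net growth.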

Experiments:
Assay in all cases: DTP human tumour cell line panel, 48 h
786-0 renal = tested on: 786-0 renal
HCC-2998 colon = tested on: HCC-2998 colon
MCF7 breast = tested on: MCF7 breast
NCI-H460 lung = tested on: NCI-H460 lung
OVCAR-4 ovarian = tested on: OVCAR-4 ovarian
PC-3 prostate = tested on: PC-3 prostate
U251 CNS = tested on: U251 CNS
EKVX NSCLC = tested on: EKVX NSCLC
HT29 colon = tested on: HT29 colon

## O=C1C(Cl)=C(Nc2cccc(O)c2)C(=O)N1c1ccc(Cl)c(Cl)c1
786-0 renal
  GI50: 17.7 µM
  TGI: 35.3 µM
HCC-2998 colon
  GI50: 15 µM
  TGI: 29.5 µM
MCF7 breast
  GI50: 25.1 µM
  TGI: 85.1 µM
NCI-H460 lung
  GI50: 19.1 µM
  TGI: 50.5 µM
OVCAR-4 ovarian
  GI50: 34.4 µM
  TGI: > 100 µM
PC-3 prostate
  GI50: 19 µM
  TGI: 49.6 µM
U251 CNS
  GI50: 15.5 µM
  TGI: 30.9 µM

## C=C(CS(=O)(=O)c1ccccc1)[P+](c1ccccc1)(c1ccccc1)c1ccccc1
786-0 renal
  TGI: 47.3 µM
EKVX NSCLC
  TGI: > 100 µM
HCC-2998 colon
  TGI: 47.2 µM
HT29 colon
  TGI: 37.3 µM
NCI-H460 lung
  TGI: 66 µM
OVCAR-4 ovarian
  TGI: > 100 µM

## CC(=O)OC1C(CCl)OC(N=[N+]=[N-])C(OC(C)=O)C1OC(C)=O (stereo not given)
786-0 renal
  TGI: > 100 µM
EKVX NSCLC
  TGI: > 100 µM
HCC-2998 colon
  TGI: > 100 µM
HT29 colon
  TGI: > 100 µM
NCI-H460 lung
  TGI: > 100 µM
OVCAR-4 ovarian
  TGI: > 100 µM
U251 CNS
  TGI: > 100 µM

## CC1=C(c2cc(C(=O)Nc3ccc(Cl)c(Cl)c3)nc(N)n2)Sc2ccccc2N1
786-0 renal
  TGI: > 100 µM
EKVX NSCLC
  TGI: > 100 µM
HCC-2998 colon
  TGI: > 100 µM
HT29 colon
  TGI: > 100 µM
NCI-H460 lung
  TGI: > 100 µM
OVCAR-4 ovarian
  TGI: > 100 µM
U251 CNS
  TGI: > 100 µM

## CC(C)(C)[Si](C)(C)O/N=C\c1ccc(O[Si](C)(C)C(C)(C)C)cc1
786-0 renal
  TGI: > 100 µM
EKVX NSCLC
  TGI: > 100 µM
HCC-2998 colon
  TGI: > 100 µM
HT29 colon
  TGI: > 100 µM
NCI-H460 lung
  TGI: > 100 µM
OVCAR-4 ovarian
  TGI: > 100 µM
U251 CNS
  TGI: 61.7 µM

## C=C1Oc2nc3ccccc3c(=O)n2C1(C)C
786-0 renal
  TGI: > 100 µM
EKVX NSCLC
  TGI: > 100 µM
HCC-2998 colon
  TGI: > 100 µM
HT29 colon
  TGI: > 100 µM
NCI-H460 lung
  TGI: > 100 µM
OVCAR-4 ovarian
  TGI: > 100 µM
U251 CNS
  TGI: > 100 µM

## O=C(O)C1c2ccccc2C(C(=O)O)c2ccccc21 (stereo not given)
786-0 renal
  TGI: > 100 µM
HCC-2998 colon
  TGI: > 100 µM
HT29 colon
  TGI: > 100 µM
NCI-H460 lung
  TGI: > 100 µM
OVCAR-4 ovarian
  TGI: > 100 µM
U251 CNS
  TGI: > 100 µM

## COc1cc2cc[n+]3c4cc(OC)c(OC)cc4c(C)cc3c2cc1OC
786-0 renal
  TGI: > 100 µM
EKVX NSCLC
  TGI: > 100 µM
HCC-2998 colon
  TGI: > 100 µM
HT29 colon
  TGI: > 100 µM
NCI-H460 lung
  TGI: > 100 µM
OVCAR-4 ovarian
  TGI: > 100 µM
U251 CNS
  TGI: > 100 µM

## COc1cccc(NC(=O)CC(=O)N2NC(C)C(N=Nc3cccc(C(=O)O)c3)C2=O)c1 (stereo not given)
786-0 renal
  TGI: > 100 µM
EKVX NSCLC
  TGI: > 100 µM
HCC-2998 colon
  TGI: > 100 µM
HT29 colon
  TGI: > 100 µM
NCI-H460 lung
  TGI: > 100 µM
OVCAR-4 ovarian
  TGI: > 100 µM
U251 CNS
  TGI: > 100 µM

## Cc1cc(C)cc(Sc2c([N+](=O)[O-])ncn2C)c1
786-0 renal
  TGI: 76.8 µM
EKVX NSCLC
  TGI: > 100 µM
HCC-2998 colon
  TGI: 92.7 µM
HT29 colon
  TGI: 38.7 µM
NCI-H460 lung
  TGI: > 100 µM
OVCAR-4 ovarian
  TGI: 44.1 µM
U251 CNS
  TGI: 36.7 µM

## Cc1cc(NS(=O)(=O)c2ccc(NC(=O)c3cccc4c(Nc5ccc(S(=O)(=O)Nc6cc(C)on6)cc5)c5ccccc5nc34)cc2)no1
786-0 renal
  TGI: 89.8 µM
EKVX NSCLC
  TGI: > 100 µM
HT29 colon
  TGI: > 100 µM
NCI-H460 lung
  TGI: > 100 µM
OVCAR-4 ovarian
  TGI: > 100 µM
U251 CNS
  TGI: 86.9 µM

## O=C(O)C1CCCCN1C(=O)c1ccccc1 (stereo not given)
786-0 renal
  TGI: > 100 µM
EKVX NSCLC
  TGI: > 100 µM
HCC-2998 colon
  TGI: > 100 µM
HT29 colon
  TGI: > 100 µM
NCI-H460 lung
  TGI: > 100 µM
OVCAR-4 ovarian
  TGI: > 100 µM
U251 CNS
  TGI: > 100 µM

## CCC[CH2][Sn]([CH2]CCC)([O]C(=O)c1nccnc1N)[O]C(=O)c1nccnc1N
786-0 renal
  GI50: 0.652 µM
  TGI: 1.91 µM
EKVX NSCLC
  GI50: 1.02 µM
  TGI: 2.18 µM
HCC-2998 colon
  GI50: 1.21 µM
  TGI: 2.45 µM
HT29 colon
  GI50: 1.59 µM
  TGI: 3.05 µM
NCI-H460 lung
  GI50: 1.63 µM
  TGI: 3.33 µM
OVCAR-4 ovarian
  GI50: 2.02 µM
  TGI: 3.49 µM
U251 CNS
  GI50: 0.478 µM
  TGI: 1.65 µM

## O=C(Nc1ccccc1Br)c1cccc([N+](=O)[O-])c1O
786-0 renal
  TGI: > 41 µM
EKVX NSCLC
  TGI: 42.9 µM
HCC-2998 colon
  TGI: 16.6 µM
HT29 colon
  TGI: > 63.3 µM
NCI-H460 lung
  TGI: > 37.9 µM
OVCAR-4 ovarian
  TGI: > 28.9 µM
U251 CNS
  TGI: 14.9 µM

## CC[O-].Cc1ccc2cccc([O-])c2n1.Cc1ccc2cccc([O-])c2n1.Cc1ccc2cccc([O-])c2n1.[Ti+4]
786-0 renal
  GI50: 28.9 µM
  TGI: > 57.9 µM
EKVX NSCLC
  GI50: > 46 µM
  TGI: > 73.5 µM
HCC-2998 colon
  GI50: 27.5 µM
  TGI: > 67.8 µM
HT29 colon
  GI50: 30.6 µM
  TGI: > 88.9 µM
NCI-H460 lung
  GI50: 20.2 µM
  TGI: > 100 µM
OVCAR-4 ovarian
  GI50: 25 µM
  TGI: > 68.3 µM
U251 CNS
  GI50: 18.3 µM
  TGI: 50.4 µM

## N#CC(C#N)=CSc1ccccc1
786-0 renal
  TGI: 34.5 µM
EKVX NSCLC
  TGI: > 100 µM
HT29 colon
  TGI: 98.2 µM
NCI-H460 lung
  TGI: > 100 µM
OVCAR-4 ovarian
  TGI: > 100 µM
U251 CNS
  TGI: 52.4 µM

## N#CCC(=O)N/N=C1\C(=O)N(c2ccc(Cl)cc2)C(=O)C(=O)C1c1nc2ccccc2o1 (stereo not given)
786-0 renal
  TGI: > 100 µM
EKVX NSCLC
  TGI: > 100 µM
HCC-2998 colon
  TGI: > 100 µM
HT29 colon
  TGI: > 100 µM
NCI-H460 lung
  TGI: > 100 µM
OVCAR-4 ovarian
  TGI: > 100 µM
U251 CNS
  TGI: > 100 µM

## O=S1(=O)CS(=O)(=O)OCCCO1
786-0 renal
  TGI: > 100 µM
EKVX NSCLC
  TGI: > 100 µM
HCC-2998 colon
  TGI: > 100 µM
HT29 colon
  TGI: > 100 µM
MCF7 breast
  TGI: > 100 µM
NCI-H460 lung
  TGI: > 100 µM
OVCAR-4 ovarian
  TGI: > 100 µM
PC-3 prostate
  TGI: > 100 µM
U251 CNS
  TGI: > 100 µM

## CC1(C)C(=S)C(C)(C)C1=S
786-0 renal
  TGI: > 100 µM
EKVX NSCLC
  TGI: > 100 µM
HCC-2998 colon
  TGI: > 100 µM
HT29 colon
  TGI: > 100 µM
MCF7 breast
  TGI: > 100 µM
NCI-H460 lung
  TGI: > 100 µM
OVCAR-4 ovarian
  TGI: > 100 µM
PC-3 prostate
  TGI: > 100 µM
U251 CNS
  TGI: > 100 µM

## CCN(CC)CCNC(=O)c1cccc2cc3ccccc3nc12
786-0 renal
  TGI: 32 µM
EKVX NSCLC
  TGI: 41.6 µM
HCC-2998 colon
  TGI: 25.9 µM
HT29 colon
  TGI: 35 µM
NCI-H460 lung
  TGI: 11.6 µM
U251 CNS
  TGI: 81.5 µM
